Activity calls are given as the source filed them. The rule behind the calls is not given here.
Legend:
HepG2 [1] = experiment: Antiinvasive activity in human HepG2 cells assessed as decrease in cells invading inferior chamber by transwell assay; type: functional, cell-based; conditions: dose 50-200 nM
HepG2 [2] = experiment: Antimigratory activity in human HepG2 cells assessed as reduction in wound closure by scratch assay; type: functional, cell-based; conditions: dose 50-200 nM
Tubulin (Homo sapiens) [3] = target: T1, Tubulin (Homo sapiens) (UniProt P68371+Q9H4B7+P0DPH7+P68366+Q13509+Q71U36+P04350+Q3ZCM7+P07437+P68363+Q9BQE3+Q6PEY2+Q13885+Q9BVA1+Q9BUF5); experiment: Disruption of microtubule organization in human HepG2 cells assessed as diffused intracellular microtubules at 50 to 200 nM by immunofluorescence staining based laser confocal microscopic analysis; type: cell-based; conditions: dose 50-200 nM
Tubulin (Homo sapiens) [4] = target: T1, Tubulin (Homo sapiens); experiment: Disruption of microtubule organization in human HepG2 cells assessed as round or polygonal shaped cells at 50 to 200 nM by immunofluorescence staining based laser confocal microscopic analysis; type: cell-based; conditions: dose 50-200 nM
Tubulin (Homo sapiens) [5] = target: T1, Tubulin (Homo sapiens); experiment: Disruption of microtubule organization in human HepG2 cells assessed as cell shrinkage at 50 to 200 nM by immunofluorescence staining based laser confocal microscopic analysis; conditions: dose 50-200 nM
Tubulin (Homo sapiens) [6] = target: T1, Tubulin (Homo sapiens); experiment: Inhibition of tubulin polymerization (unknown origin) assessed as decrease in fluorescence intensity at 2 uM; type: protein-complex assay; conditions: time 1000-2000 min, TDE = time-dependent effect
A549 = experiment: Antiproliferative activity against human A549 cells assessed as inhibition of cell growth; type: functional, cell-based
HepG2 [7] = experiment: Antiproliferative activity against human HepG2 cells assessed as inhibition of cell growth; type: functional, cell-based
U-937 = experiment: Antiproliferative activity against human U-937 cells assessed as inhibition of cell growth; type: functional, cell-based
Y79 = experiment: Antiproliferative activity against human Y79 cells assessed as inhibition of cell growth; type: functional, cell-based
HepG2 [8] = experiment: Induction of cell cycle arrest in human HepG2 cells assessed as decrease in G1 phase cells at 50 nM incubated for 24 hrs by PI staining based flow cytometric analysis (reference value: 73.85%); type: functional; set-up: scale not given: the % may be the effect or the level left
HepG2 [9] = experiment: Induction of cell cycle arrest in human HepG2 cells assessed as decrease in S phase cells at 50 nM incubated for 24 hrs by PI staining based flow cytometric analysis (reference value: 12.75%); type: functional; set-up: scale not given: the % may be the effect or the level left
HepG2 [10] = experiment: Induction of cell cycle arrest in human HepG2 cells assessed as increase in G2 phase cells at 50 nM incubated for 24 hrs by PI staining based flow cytometric analysis (reference value: 13.40%); type: functional
HepG2 [11] = experiment: Induction of cell cycle arrest in human HepG2 cells assessed as decrease in G1 phase cells at 100 nM incubated for 24 hrs by PI staining based flow cytometric analysis (reference value: 73.85%); type: functional; set-up: scale not given: the % may be the effect or the level left
HepG2 [12] = experiment: Induction of cell cycle arrest in human HepG2 cells assessed as decrease in S phase cells at 100 nM incubated for 24 hrs by PI staining based flow cytometric analysis (reference value: 12.75%); type: functional; set-up: scale not given: the % may be the effect or the level left
HepG2 [13] = experiment: Induction of cell cycle arrest in human HepG2 cells assessed as increase in G2 phase cells at 100 nM incubated for 24 hrs by PI staining based flow cytometric analysis (reference value: 13.40%); type: functional
HepG2 [14] = experiment: Induction of cell cycle arrest in human HepG2 cells assessed as decrease in G1 phase cells at 200 nM incubated for 24 hrs by PI staining based flow cytometric analysis (reference value: 73.85%); type: functional; set-up: scale not given: the % may be the effect or the level left
HepG2 [15] = experiment: Induction of cell cycle arrest in human HepG2 cells assessed as decrease in S phase cells at 200 nM incubated for 24 hrs by PI staining based flow cytometric analysis (reference value: 12.75%); type: functional; set-up: scale not given: the % may be the effect or the level left
HepG2 [16] = experiment: Induction of cell cycle arrest in human HepG2 cells assessed as increase in G2 phase cells at 200 nM incubated for 24 hrs by PI staining based flow cytometric analysis (reference value: 13.40%); type: functional
HepG2 [17] = experiment: Induction of apoptosis in human HepG2 cells assessed as viable cells at 50 nM incubated for 48 hrs by AnnexinV-FITC/PI staining based flow cytometric analysis (reference value: 92.0%); type: functional; conditions: read-out: Activity
HepG2 [18] = experiment: Induction of apoptosis in human HepG2 cells assessed as early apoptotic cells at 50 nM incubated for 48 hrs by AnnexinV-FITC/PI staining based flow cytometric analysis (reference value: 1.83%); type: functional
HepG2 [19] = experiment: Induction of apoptosis in human HepG2 cells assessed as late apoptotic cells at 50 nM incubated for 48 hrs by AnnexinV-FITC/PI staining based flow cytometric analysis (reference value: 3.33%); type: functional
HepG2 [20] = experiment: Induction of apoptosis in human HepG2 cells assessed as necrotic cells at 50 nM incubated for 48 hrs by AnnexinV-FITC/PI staining based flow cytometric analysis (reference value: 2.82%); type: functional
HepG2 [21] = experiment: Induction of apoptosis in human HepG2 cells assessed as viable cells at 100 nM incubated for 48 hrs by AnnexinV-FITC/PI staining based flow cytometric analysis (reference value: 92.0%); type: functional; conditions: read-out: Activity
HepG2 [22] = experiment: Induction of apoptosis in human HepG2 cells assessed as early apoptotic cells at 100 nM incubated for 48 hrs by AnnexinV-FITC/PI staining based flow cytometric analysis (reference value: 1.83%); type: functional
HepG2 [23] = experiment: Induction of apoptosis in human HepG2 cells assessed as late apoptotic cells at 100 nM incubated for 48 hrs by AnnexinV-FITC/PI staining based flow cytometric analysis (reference value: 3.33%); type: functional
HepG2 [24] = experiment: Induction of apoptosis in human HepG2 cells assessed as necrotic cells at 100 nM incubated for 48 hrs by AnnexinV-FITC/PI staining based flow cytometric analysis (reference value: 2.82%); type: functional
HepG2 [25] = experiment: Induction of apoptosis in human HepG2 cells assessed as viable cells at 200 nM incubated for 48 hrs by AnnexinV-FITC/PI staining based flow cytometric analysis (reference value: 92.0%); type: functional; conditions: read-out: Activity
HepG2 [26] = experiment: Induction of apoptosis in human HepG2 cells assessed as early apoptotic cells at 200 nM incubated for 48 hrs by AnnexinV-FITC/PI staining based flow cytometric analysis (reference value: 1.83%); type: functional
HepG2 [27] = experiment: Induction of apoptosis in human HepG2 cells assessed as late apoptotic cells at 200 nM incubated for 48 hrs by AnnexinV-FITC/PI staining based flow cytometric analysis (reference value: 3.33%); type: functional
HepG2 [28] = experiment: Induction of apoptosis in human HepG2 cells assessed as necrotic cells at 200 nM incubated for 48 hrs by AnnexinV-FITC/PI staining based flow cytometric analysis (reference value: 2.82%); type: functional
HepG2 [29] = experiment: Induction of apoptosis in human HepG2 cells assessed as total apoptotic cells at 50 nM incubated for 48 hrs by AnnexinV-FITC/PI staining based flow cytometric analysis (reference value: 5.16%); type: functional
HepG2 [30] = experiment: Induction of apoptosis in human HepG2 cells assessed as total apoptotic cells at 100 nM incubated for 48 hrs by AnnexinV-FITC/PI staining based flow cytometric analysis (reference value: 5.16%); type: functional
HepG2 [31] = experiment: Induction of apoptosis in human HepG2 cells assessed as total apoptotic cells at 200 nM incubated for 48 hrs by AnnexinV-FITC/PI staining based flow cytometric analysis (reference value: 5.16%); type: functional
HepG2 [32] = experiment: Induction of G2/M phase cell cycle arrest in human HepG2 cells assessed as increase in P21 protein expression by Western blot analysis; type: functional, cell-based; conditions: dose 50-200 nM
HepG2 [33] = experiment: Induction of G2/M phase cell cycle arrest in human HepG2 cells assessed as decrease in cyclinB1 protein expression by Western blot analysis; type: functional, cell-based; conditions: dose 50-200 nM

COc1cc(Nc2nccc(-c3ccc4c(c3)OCCO4)n2)cc(OC)c1OC
Activity (HepG2 [1]): Dose-Dependent Effect
Activity (HepG2 [2]): Dose-Dependent Effect
Activity (Tubulin (Homo sapiens) [3]): Active
Activity (Tubulin (Homo sapiens) [4]): Active
Activity (Tubulin (Homo sapiens) [5]): Active
inhibition (Tubulin (Homo sapiens) [6]): Tde
IC50 (A549): 800 nM
IC50 (HepG2 [7]): 110 nM
IC50 (U-937): 70 nM
IC50 (Y79): 100 nM
Activity (HepG2 [8]): 69.07%
Activity (HepG2 [9]): 4.85%
Activity (HepG2 [10]): 26.08%
Activity (HepG2 [11]): 65.52%
Activity (HepG2 [12]): 6.95%
Activity (HepG2 [13]): 27.53%
Activity (HepG2 [14]): 63.13%
Activity (HepG2 [15]): 0.88%
Activity (HepG2 [16]): 35.99%
viability at 0.05 µM (HepG2 [17]): 61.5%
Activity (HepG2 [18]): 21.5%
Activity (HepG2 [19]): 16.9%
Activity (HepG2 [20]): 0.12%
viability at 0.1 µM (HepG2 [21]): 57.9%
Activity (HepG2 [22]): 17.9%
Activity (HepG2 [23]): 23.4%
Activity (HepG2 [24]): 0.82%
viability at 0.2 µM (HepG2 [25]): 63.3%
Activity (HepG2 [26]): 10.9%
Activity (HepG2 [27]): 33.7%
Activity (HepG2 [28]): 2.13%
Activity (HepG2 [29]): 38.4%
Activity (HepG2 [30]): 41.3%
Activity (HepG2 [31]): 43.6%
Activity (HepG2 [32]): Dose-Dependent Effect
Activity (HepG2 [33]): Dose-Dependent Effect

— ChEMBL document CHEMBL5252592, “Design, synthesis, and biological activity evaluation of novel tubulin polymerization inhibitors based on pyrimidine ring skeletons” (Bioorg Med Chem Lett, 2023)
